Test results taken from publication PMC11602940, “Assessing multi-target antiviral and antioxidant activities of natural compounds against SARS-CoV-2: an integrated in vitro and in silico study” (Bioresources and Bioprocessing, 2024).
≈ marks a conversion by molar mass, not a printed value.

Experiments:
SARS-CoV-2 = assay type: cell-based
[1] = Cupric ion reducing antioxidant capacity assay (CUPRAC)
Experimental: The CUPRAC assay evaluates the ability of antioxidants to reduce cupric ions (Cu^2⁺) to cuprous ions (Cu^1⁺), forming a stable colored complex with neocuproine. For the assay, a CUPRAC reagent is prepared by mixing 10 mL of 10 mM copper(II) chloride (CuCl₂), 10 mL of 7.5 mM neocuproine, and 10 mL of ammonium acetate buffer (pH 7.0). […] Trolox is again used as the positive control and prepared at the same concentrations. For the assay, 1 mL of each sample concentration or Trolox is mixed with 1 mL of CUPRAC reagent in a 96-well plate or test tube. The reaction mixture is incubated at room temperature for 30 min to allow a complete reduction of Cu^2⁺ to Cu^1⁺. The absorbance is then measured at 450 nm using a UV–visible spectrophotometer. The antioxidant capacity is determined by comparing the absorbance to a Trolox standard curve, and the results were expressed as µmol Trolox equivalents/g of the sample. All measurements are performed in triplicate.

[2] = Ferric reducing antioxidant power assay (FRAP)
Experimental: The FRAP assay is based on the reduction of ferric ions (Fe^3⁺) to ferrous ions (Fe^2⁺) in the presence of antioxidants. The reduced Fe^2⁺ forms a blue-colored complex with 2,4,6-tripyridyl-s-triazine (TPTZ), and the intensity of the color is directly proportional to the reducing power of the sample, which can be quantified spectrophotometrically. For the assay, an acetate buffer (300 mM, pH 3.6) is prepared by dissolving […] in 1 L of distilled water. The TPTZ solution (10 mM) is dissolved in 40 mM HCl, and the ferric chloride solution (FeCl₃, 20 mM) is prepared separately. The FRAP reagent is freshly prepared before the assay by mixing 10 parts acetate buffer, 1 part TPTZ solution, and 1 part FeCl₃ solution. This reagent is kept at 37 °C to ensure its stability during the reaction. For the sample preparation, different concentrations of samples were dissolved in methanol. Trolox, a well-known antioxidant, is used as the positive control and prepared at the same concentrations for comparison. To conduct the assay, 100 µL of each sample or Trolox solution is mixed with 3 mL of freshly prepared FRAP reagent in a 96-well plate or test tube. The mixtures are incubated at 37 °C for 30 min, allowing the antioxidants in the samples to reduce the Fe^3⁺ ions to Fe^2⁺. After incubation, the absorbance of the resulting blue-colored complex is measured at 593 nm using a UV–visible spectrophotometer. The FRAP value of each sample is calculated by comparing the absorbance to a standard curve generated using known concentrations of ferrous sulfate (FeSO₄). The antioxidant capacity is expressed as µmol Fe^2⁺ equivalents/g of the sample. The experiment included three separate readings for every measurement.

[3] = ABTS radical cation scavenging activity
Experimental: The activity of scavenging ABTS radical cation was assessed across various concentrations, and the outcomes were juxtaposed with those obtained from standard materials. The selected compounds and vitamin C were evaluated at corresponding concentrations, following the methodology outlined in a prior study (AlBalawi et al. [2023]). Using the absorbance reading at 734 nm, the percentage of ABTS radical cation scavenging activity was computed using the formula: %ABTSradicalcationscavengingactivity=1-AsampleAsampleAcontrolAcontrol×100TopofForm

Vero CCL-81 cells [4] = assay: MTT cytotoxicity assay; assay type: cell-based; details: 48 h
Experimental: An MTT (3-[4,5-dimethylthiazol-2-yl]-2,5 diphenyl tetrazolium bromide) assay was used to measure the effects of the selected compounds on Vero CCL-81 cells to ascertain the cytotoxicity of the compounds (Njeru and Muema [2021]; El-Shehawy et al. [2023]). To summarize, Vero CCL-81 cells were seeded in 96-well plates with 1.0 × 10^4 cells per well in DMEM supplemented with 2% FBS at a density of 1.0 × 10^4 cells per well. In the following step, the plates were incubated at 37 °C with 5% CO2 for 24 h before they were collected. A dilution of 150 µL of compounds was added in quadruplicate to each well after the incubation, and the wells were kept at 37 °C with 5% CO2 for 48 h. After the PBS was added to each well, a final step was to add 30 µL of MTT, remove the supernatants, and wash with PBS twice. A 2 h incubation period was conducted after MTT addition, at 37 °C, using 5% CO2, and it was protected from light for 2 h. A 100 µL/well DMSO solution was added to the wells to dissolve the formazan crystals (El-Sewedy et al. [2023]). Positive controls (cells treated with a known cytotoxic agent) and negative controls (untreated cells) were included in each experiment and were in triplicate.

Vero CCL-81 cells [5] = assay: Dose-dependent assay (Chou-Talalay, CompuSyn) from MTT data; assay type: cell-based
Experimental: The compounds were analyzed using MTT assay data. By applying the Chou-Talalay method, the dose-dependent effect was calculated (Elwakeel et al. [2019]). This calculation was performed using CompuSyn software. The dose–effect curves were created for both single treatments, and the fraction affected (Fa) values were determined for each dose and corresponding effect as previously reported (El-Sewedy et al. [2023]). The dose-dependent assay was carried out in triplicate to guarantee reproducibility.

CCC(CC)COC(=O)[C@H](C)N[P@](=O)(OC[C@H]1O[C@@](C#N)(c2ccc3c(N)ncnn23)[C@H](O)[C@@H]1O)Oc1ccccc1 [RVD, Remdesivir, reference compound]
decrease in SARS-CoV-2 viral titer (SARS-CoV-2): 100%

Cc1c(C)c2c(c(C)c1O)CCC(C)(C(=O)O)O2 (stereo not shown) [Trolox, reference compound]
CUPRAC ± SD ([1]; 1000 µg/mL): 1100.00 ± 17.50 μmol Trolox eq/g
FRAP ± SD ([2]; 1000 µg/mL): 1200.00 ± 20.00 μmol Fe^2⁺ eq/g
ABTS ± SD ([3]; 1000 µg/mL): 1300.00 ± 22.00 μmol Trolox eq/g

COc1cc(/C=C/C(=O)CC(=O)/C=C/c2ccc(O)c(OC)c2)ccc1O [Curcumin]
effect on SARS-CoV-2 viral titer (SARS-CoV-2): reduced viral titer
IC50 (Vero CCL-81 cells [4]): 83.2 µg/mL (≈ 226 µM)
Dose at fraction affected (Fa) (Vero CCL-81 cells [5]; Fa 0.5, 48 h treatment): 9.421
Dose at fraction affected (Fa) (Vero CCL-81 cells [5]; Fa 0.75, 48 h treatment): 20.7718
Dose at fraction affected (Fa) (Vero CCL-81 cells [5]; Fa 0.9, 48 h treatment): 45.7973
Dose at fraction affected (Fa) (Vero CCL-81 cells [5]; Fa 0.95, 48 h treatment): 78.4112
Dose at fraction affected (Fa) (Vero CCL-81 cells [5]; Fa 0.97, 48 h treatment): 114.960

O=c1c(O)c(-c2ccc(O)c(O)c2)oc2cc(O)cc(O)c12 [Quercetin]
CUPRAC ± SD ([1]; 10 µg/mL): 115.25 ± 3.70 μmol Trolox eq/g
CUPRAC ± SD ([1]; 20 µg/mL): 190.20 ± 5.00 μmol Trolox eq/g
CUPRAC ± SD ([1]; 40 µg/mL): 340.30 ± 7.00 μmol Trolox eq/g
CUPRAC ± SD ([1]; 80 µg/mL): 590.10 ± 9.50 μmol Trolox eq/g
CUPRAC ± SD ([1]; 100 µg/mL): 780.55 ± 11.20 μmol Trolox eq/g
FRAP ± SD ([2]; 10 µg/mL): 120.30 ± 4.00 μmol Fe^2⁺ eq/g
FRAP ± SD ([2]; 20 µg/mL): 200.15 ± 5.20 μmol Fe^2⁺ eq/g
FRAP ± SD ([2]; 40 µg/mL): 350.45 ± 7.50 μmol Fe^2⁺ eq/g
FRAP ± SD ([2]; 80 µg/mL): 600.55 ± 10.10 μmol Fe^2⁺ eq/g
FRAP ± SD ([2]; 100 µg/mL): 800.45 ± 12.50 μmol Fe^2⁺ eq/g
concentration to which antiviral properties were limited (SARS-CoV-2): 100 µg/mL
effect on SARS-CoV-2 viral titer (SARS-CoV-2): no noticeable change in viral titer
IC50 (Vero CCL-81 cells [4]): 55.2 µg/mL (≈ 183 µM)
Dose at fraction affected (Fa) (Vero CCL-81 cells [5]; Fa 0.5, 48 h treatment): 12.0260
Dose at fraction affected (Fa) (Vero CCL-81 cells [5]; Fa 0.75, 48 h treatment): 46.3852
Dose at fraction affected (Fa) (Vero CCL-81 cells [5]; Fa 0.9, 48 h treatment): 178.911
Dose at fraction affected (Fa) (Vero CCL-81 cells [5]; Fa 0.95, 48 h treatment): 448.103
Dose at fraction affected (Fa) (Vero CCL-81 cells [5]; Fa 0.97, 48 h treatment): 861.173
ABTS ± SD ([3]; 10 µg/mL): 130.40 ± 4.50 μmol Trolox eq/g
ABTS ± SD ([3]; 20 µg/mL): 210.10 ± 6.00 μmol Trolox eq/g
ABTS ± SD ([3]; 40 µg/mL): 360.40 ± 8.00 μmol Trolox eq/g
ABTS ± SD ([3]; 80 µg/mL): 620.20 ± 11.50 μmol Trolox eq/g
ABTS ± SD ([3]; 100 µg/mL): 820.30 ± 14.00 μmol Trolox eq/g
